Measured values reported in patent US4394390A, “Nasal dosage forms of propranol” (University of Kentucky Research Foundation, priority 1980, dated 1983).

Key:
[1] = rat, in vivo
[2] = cited from earlier work
in vivo [3] = settings: rat
in vivo [4] = settings: dog
[5] = Crossover study of propranolol plasma levels after nasal, intravenous and oral administration in dogs
[6] = Bioavailability of propranolol from nasal solution vs oral and intravenous administration in rats (blood levels, AUC); settings: rat, FIG. 1

CC(C)NCC(O)COc1cccc2ccccc12 (centres unmarked) [propranolol, 1-(isopropylamino)-3-(1-naphthyloxy)-2-propanol]
dependence of area under the blood level curve on dose [1]: directly proportional to the dose | oral bioavailability, AUC ratio (oral/nasal)×100 ([1]; 240 min): about 15% | variation of plasma levels among subjects ([2]; human, intravenous, 10 mg, same five subjects): varied only two fold | variation of peak plasma levels among subjects ([2]; human, oral, 80 mg, five subjects): varied seven fold | bioavailability (ratio of AUC of 80 mg oral dose and 10 mg I.V. dose) ([2]; human, oral, lowest in some subjects): 16% | absorption from oral dosage forms ([2]; oral dosage forms): inefficiently and variably absorbed from oral dosage forms | Tmax (in vivo [3]): ≤ 5 min | bioavailability at 4 h (in vivo [3]; Ratio (AUC nasal vs I.V.)): 99.6% | bioavailability at 4 h (in vivo [3]; po, Ratio (AUC oral vs I.V.)): 17.9% | bioavailability at 4 h (in vivo [3]; po, oral bioavailability, AUC ratio (oral/I.V.)×100): ~15% | bioavailability at 8 h (in vivo [4]; AUC(Nasal)/AUC(I.V.)): 96.7% | bioavailability (in vivo [4]; bioavailability from the nasal route relative to the intravenous route): 99.1% | bioavailability at 8 h (in vivo [4]; po, AUC(P.O.)/AUC(I.V.)): 8.9% | bioavailability (in vivo [4]; po, bioavailability from the oral route relative to the intravenous route): 7.4% | plasma levels after intravenous and nasal administration compared ([5]; dog, 20 mg, nasal vs I.V., FIG. 2): virtually identical | plasma levels after oral administration ([5]; dog, 20 mg, oral compared with I.V. and nasal, FIG. 2): considerably lower plasma levels | absorption from the nasal mucosa into systemic blood ([5]; nasal, conclusion from dog study and rat study): rapidly absorbed from the nasal mucosa into systemic blood without the first pass metabolism | blood level after nasal administration compared with intravenous administration ([6]; nasal 1 mg vs I.V. 1 mg): identical to the blood level after intravenous administration | absorption from the nasal mucosa ([6]; nasal): very rapidly absorbed from the nasal mucosa | blood level after oral administration ([6]; oral, same dosage level (1 mg), compared with nasal and I.V.): considerably lower blood levels
